Reference: patent publication US20250332173A1, “COMPOUNDS AND METHODS FOR MODULATING NUCLEIC ACID SPLICING” (REMIX THERAPEUTICS INC., priority 2021, published 2025)
Read-outs that look alike come from different tables or passages of the source.

Key:
[1] = test system: MYB mRNA; test: RT-qPCR splicing assay, MYB canonical junction (CJ) and alternative junction (AJ) mRNA; format: cell-based, human; conditions: Homo sapiens; for AC50: increase in MYB alternative junction (AJ) mRNA, read-out: MYB AJ AC50
Summary of the method: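 A673 or K562 cells were treated for 24 h at 37 °C with an 11-point 3-fold compound dilution series (top final concentration 10 uM, DMSO ≤0.25%). After lysis, one-step TaqMan RT-qPCR quantified junction transcripts, normalized to PPIA for A673 or to GAPDH/GUSB for K562.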

[2] = test system: MYB; test: HiBiT protein abundance assay, MYB HiBiT K562 cell line; format: cell-based, human; conditions: HiBiT K562 cell line, 24 hours, top dose 10 μM; read-out: Effect on protein abundance, MYB (IC50 category)
Summary of the method: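 Endogenous targets in K562 knock-in lines carried a HiBiT tag and were treated for 24 h at 37 °C with 10-point 3-fold dilutions (top 10 μM final, DMSO ≤0.25%). Abundance was read as lytic Nano-Glo HiBiT luminescence. IC50 came from a four-parameter logistic fit of normalized response.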

[3] = Table 5 panel, canonical junction qPCR, compound concentration having 50% response in CJ decrease, read-out: MYB IC50 (decrease in CJ mRNA levels)
[4] = decrease in MYB canonical junction (CJ) mRNA, RT-qPCR, read-out: MYB CJ IC50

IC50 [1, 3] | IC50 [1, 4] | IC50 [2] | Compound | AC50 ([1]; RT-qPCR)
< 0.1 µM | 0.1 to 1 µM | 0.1 to 1 µM | Cc1cn2cc(-c3cc(F)c4c(=O)n([C@@H]5CCNC5)ccc4c3)cc(F)c2n1 (single isomer, unassigned) [Compound 395] | < 0.1 µM
< 0.1 µM | < 0.1 µM | 0.1 to 1 µM | Cc1cn2cc(-c3cc(F)c4c(=O)n([C@H]5CCNC5)ccc4c3)cc(F)c2n1 (single isomer, unassigned) [Compound 396] | < 0.1 µM
1 to 10 µM | 0.1 to 1 µM | 0.1 to 1 µM | Cc1cn2cc(-c3ccc4c(=O)n([C@@H]5CCCNC5)ccc4c3)cc(F)c2n1 (single isomer, unassigned) [Compound 403] | 1 to 10 µM
< 0.1 µM | < 0.1 µM | < 0.1 µM | Cc1cn2nc(-c3cc(F)c4c(=O)n([C@@H]5CCNC6(CC6)C5)ccc4c3)cc(C)c2n1 (single isomer, unassigned) [Compound 425] | < 0.1 µM
< 0.1 µM | < 0.1 µM | < 0.1 µM | Cc1cn2nc(-c3cc(F)c4c(=O)n([C@H]5CCNC6(CC6)C5)ccc4c3)cc(C)c2n1 (single isomer, unassigned) [Compound 426] | < 0.1 µM
< 0.1 µM | 0.1 to 1 µM | 0.1 to 1 µM | Cc1cn2nc(-c3cc(F)c4c(=O)n(C5CCNC5)ccc4c3)cc(C)c2n1 (stereo in doubt) [Compound 382, (R)-6-(2,8-dimethylimidazo[1,2-b]pyridazin-6-yl)-8-fluoro-2-(pyrrolidin-3-yl)isoquinolin-1(2H)-one] | < 0.1 µM
< 0.1 µM | < 0.1 µM | 0.1 to 1 µM | Cc1cn2nc(-c3cc(F)c4c(=O)n(C5CCNC5)ccc4c3)cc(C)c2n1 (stereo in doubt) [Compound 392, (S)-6-(2,8-dimethylimidazo[1,2-b]pyridazin-6-yl)-8-fluoro-2-(pyrrolidin-3-yl)isoquinolin-1(2H)-one] | < 0.1 µM
0.1 to 1 µM | < 0.1 µM | < 0.1 µM | Cc1cn2nc(-c3cc(C)c4c(=O)n(C5CCNC6(CC6)C5)ccc4c3)cc(C)c2n1 (stereo in doubt) [Compound 397, (S)-6-(2,8-dimethylimidazo[1,2-b]pyridazin-6-yl)-8-methyl-2-(4-azaspiro[2.5]octan-7-yl)isoquinolin-1(2H)-one] | 0.1 to 1 µM
< 0.1 µM | < 0.1 µM | < 0.1 µM | Cc1cn2nc(-c3cc(C)c4c(=O)n(C5CCNC6(CC6)C5)ccc4c3)cc(C)c2n1 (stereo in doubt) [Compound 398, (R)-6-(2,8-dimethylimidazo[1,2-b]pyridazin-6-yl)-8-methyl-2-(4-azaspiro[2.5]octan-7-yl)isoquinolin-1(2H)-one] | < 0.1 µM
0.1 to 1 µM | 0.1 to 1 µM | 0.1 to 1 µM | Cc1cn2nc(-c3ccc4c(=O)n(C5CCCNC5)ccc4c3)cc(C)c2n1 (stereo in doubt) [Compound 410, 6-{2,8-dimethylimidazo[1,2-b]pyridazin-6-yl}-2-[(3S)-piperidin-3-yl]isoquinolin-1-one] | 0.1 to 1 µM
1 to 10 µM | 1 to 10 µM | 1 to 10 µM | Cc1cn2nc(-c3ccc4c(=O)n(C5CCCNC5)ccc4c3)cc(C)c2n1 (stereo in doubt) [Compound 411, 6-{2,8-dimethylimidazo[1,2-b]pyridazin-6-yl}-2-[(3R)-piperidin-3-yl]isoquinolin-1-one] | 1 to 10 µM
0.1 to 1 µM | 0.1 to 1 µM | 0.1 to 1 µM | Cc1cn2cc(-c3cc(F)c4c(=O)n(C5CCOC5)cnc4c3)cc(C#N)c2n1 (stereo in doubt) [Compound 499, (R)-6-(5-fluoro-4-oxo-3-(tetrahydrofuran-3-yl)-3,4-dihydroquinazolin-7-yl)-2-methylimidazo[1,2-a]pyridine-8-carbonitrile] | 0.1 to 1 µM
0.1 to 1 µM | 0.1 to 1 µM | 0.1 to 1 µM | Cc1cn2cc(-c3cc(F)c4c(=O)n(C5CCOC5)cnc4c3)cc(C#N)c2n1 (stereo in doubt) [Compound 500, (S)-6-(5-fluoro-4-oxo-3-(tetrahydrofuran-3-yl)-3,4-dihydroquinazolin-7-yl)-2-methylimidazo[1,2-a]pyridine-8-carbonitrile] | 0.1 to 1 µM
0.1 to 1 µM | 0.1 to 1 µM | 0.1 to 1 µM | Cc1cn2nc(-c3ccc4c(=O)n([C@H]5CCNC[C@H]5F)cnc4c3)cc(C)c2n1 [Compound 372] | 0.1 to 1 µM
1 to 10 µM | 1 to 10 µM | 1 to 10 µM | Cc1cc(-c2ccc3c(=O)n(C4CCNC5(COC5)C4)cnc3c2)cc2cn(C)nc12 (centres unmarked) [Compound 375] | 1 to 10 µM
1 to 10 µM | 1 to 10 µM | 1 to 10 µM | Cc1cc(-c2ccc3c(=O)n([C@@H]4CCNC[C@H]4F)ncc3c2)cc2cn(C)nc12 [Compound 378] | 1 to 10 µM
0.1 to 1 µM | 0.1 to 1 µM | 0.1 to 1 µM | Cc1cn2nc(-c3ccc4c(=O)n([C@@H]5CCNC[C@H]5F)ncc4c3)cc(C)c2n1 [Compound 379] | 0.1 to 1 µM
< 0.1 µM | < 0.1 µM | < 0.1 µM | Cc1cn2nc(-c3cc(F)c4c(=O)n(C5CCNC6(CC6)C5)ccc4c3)cc(C)c2n1 (centres unmarked) [Compound 380, 6-(2,8-dimethylimidazo[1,2-b]pyridazin-6-yl)-8-fluoro-2-(4-azaspiro[2.5]octan-7-yl)isoquinolin-1(2H)-one] | < 0.1 µM

Further lines, the molecule ahead of its results:

Compound | IC50 [1, 3] | IC50 [1, 4] | IC50 [2] | AC50 ([1]; RT-qPCR)
Cc1cn2nc(-c3ccc4c(=O)n([C@@H]5CCNC6(CC6)C5)ncc4c3)cc(C)c2n1 (stereo in doubt) [Compound 368, 2-[(7R)-4-azaspiro[2.5]octan-7-yl]-6-{2,8-dimethylimidazo[1,2-b]pyridazin-6-yl}phthalazin-1-one] | 0.1 to 1 µM | 0.1 to 1 µM | < 0.1 µM | 0.1 to 1 µM
Cn1cc2cc(-n3cnc4cc(C5=CC6CCC(C5)N6)ccc4c3=O)ccc2n1 (centres unmarked) [Compound 160] | > 10 µM | > 10 µM | > 10 µM | > 10 µM
CN1C2C=C(c3ccc4c(=O)n(-c5ccc6nn(C)cc6c5)cnc4c3)CC1CC2 (centres unmarked) [Compound 161] | > 10 µM | > 10 µM | > 10 µM | > 10 µM
Cn1cc2cc(-n3cnc4cc(NC5CCNCC5)ccc4c3=O)ccc2n1 [Compound 162] | > 10 µM | > 10 µM | > 10 µM | > 10 µM
CN1CCC(Nc2ccc3c(=O)n(-c4ccc5nn(C)cc5c4)cnc3c2)CC1 [Compound 163] | 1 to 10 µM | > 10 µM | > 10 µM | 1 to 10 µM
Cn1cc2cc(-n3cnc4cc(C5CCNCC5)ccc4c3=O)ccc2n1 [Compound 172] | > 10 µM | > 10 µM | > 10 µM | > 10 µM
Cc1cc(-c2ccc3c(=O)n(C4CCN(C)CC4)cnc3n2)cc2cn(C)nc12 [Compound 173] | > 10 µM | > 10 µM | > 10 µM | > 10 µM
Cc1cc(-c2ccc3c(=O)n(C4CCNCC4)cnc3c2)cc2cn(C)nc12 [Compound 174] | 0.1 to 1 µM | 0.1 to 1 µM | < 0.1 µM | 0.1 to 1 µM
Cc1cn2cc(-c3cc(N)c4c(=O)n(C5CCNCC5)cnc4c3)cc(C#N)c2n1 [Compound 364, 6-[5-amino-4-oxo-3-(piperidin-4-yl)quinazolin-7-yl]-2-methylimidazo[1,2-a]pyridine-8-carbonitrile] | > 10 µM | > 10 µM | > 10 µM | > 10 µM
Cn1cc2c(n1)CCN(c1cc(F)c3c(=O)n(C4CCNCC4)cnc3c1)C2 [Compound 365, 5-fluoro-7-(2-methyl-2,4,6,7-tetrahydro-5H-pyrazolo[4,3-c]pyridin-5-yl)-3-(piperidin-4-yl)quinazolin-4(3H)-one] | 1 to 10 µM | 1 to 10 µM | 1 to 10 µM | 1 to 10 µM
Cc1cn2cc(-c3cc(F)c4c(=O)n(C5CCOC5)cnc4c3)cc(C#N)c2n1 (centres unmarked) [Compound 366, 6-[5-fluoro-4-oxo-3-(oxolan-3-yl)quinazolin-7-yl]-2-methylimidazo[1,2-a]pyridine-8-carbonitrile] | 1 to 10 µM | 1 to 10 µM | 1 to 10 µM | 1 to 10 µM
Cc1cn2cc(-c3cc(F)c4c(=O)n(C5CCOCC5)cnc4c3)cc(C#N)c2n1 [Compound 367, 6-[5-fluoro-3-(oxan-4-yl)-4-oxoquinazolin-7-yl]-2-methylimidazo[1,2-a]pyridine-8-carbonitrile] | 0.1 to 1 µM | 0.1 to 1 µM | 0.1 to 1 µM | 0.1 to 1 µM
Cc1cn2nc(-c3ccc4c(=O)n([C@H]5CCNC6(CC6)C5)ncc4c3)cc(C)c2n1 [Compound 369, 2-[(7S)-4-azaspiro[2.5]octan-7-yl]-6-{2,8-dimethylimidazo[1,2-b]pyridazin-6-yl}phthalazin-1-one] | < 0.1 µM | < 0.1 µM | 1 to 10 µM | < 0.1 µM
Cc1cn2cc(-c3cc(F)c4c(=O)n(C5CCNCC5)ccc4c3)cc(F)c2n1 [Compound 370] | < 0.1 µM | < 0.1 µM | < 0.1 µM | < 0.1 µM
